Test results: US20150374861A1, “KIT FOR TUMOR IMAGING” (THOMAS JEFFERSON UNVERSITY, priority 2013, published 2015)
Where two headings read alike, the source gives them in different places.

Tests used:
[1] = literature, Ga-67 Citrate 10 mCi, Cu-64 ATSM 25 mCi, cited from earlier work; for Effective Dose: FDG-PET/CT F-18 10 mCi, Sestamibi Tc-99m 30 mCi, FDG-PET/PM w/o CT F-18 10 mCi
[2] = test system: primary tumor site and metastatic lymph nodes; experiment: Whole body PET/CT imaging of breast cancer patients; format: in vivo, human; details: six PET/CT patients: six primary lesions, four involved lymph nodes
Experimental: Caucasian, Hispanic, African American or Asian non-pregnant women, eighteen years of age or older, with newly diagnosed, histologically proven BC were enrolled. Image guided percutaneous biopsy was performed two to six weeks prior to this imaging procedure. Each patient signed the informed consent form. For this feasibility study, a biostatistician determined that six patients be studied with PET and thirteen with PEM. This determination was based on the assumption that Cu-64-TP3805 will detect 80% of the lesions and there will be 87% power to conclude the use of this agent to diagnosis BC.
Each patient fasted for six hours prior to F-18-FDG injection. Before F-18-FDG injection, blood sugar was monitored. Patients with sugar levels below 250 mg/DL were enrolled. […]
For Cu-64-TP3805 imaging, patients neither fasted nor were blood sugar levels determined. […]
All images were read by two board certified nuclear medicine physicians and a board certified breast imaging physician. […] For six patients with PET/CT, standardized uptake values (SUV) were calculated for the primary tumor site and metastatic lymph nodes, and compared for the respective radiotracers. Metabolic tumor volume was calculated using 50% isocontour geometry method for comparison, as it is relatively a better parameter, as compared to SUV.

Compound: O=C([O-])CC(O)(CC(=O)[O-])C(=O)[O-].[Ga+3] [Ga-67 Citrate]
- Effective Dose [1]: 39 mSv
- Liver Dose [1]: 69 mSv

Compound: CNC1=NN=C(C)C(C)=NN=C(NC)[S][64Cu][S]1 [Cu-64 ATSM]
- Effective Dose [1]: 33.3 mSv
- Liver Dose [1]: 361 mSv

Compound: OC[C@H]1O[C@@H](O)[C@H]([18F])[C@@H](O)[C@@H]1O [F-18-FDG]
- detection of lesions [2]: ten lesions detected
- Effective Dose ([1]; listed as FDG-PET/CT): 31.9 mSv
- Effective Dose ([1]; listed as FDG-PET/PM w/o CT): 2.8 mSv
